Source: ChEMBL document CHEMBL1201862, “PubChem BioAssay data set” (2004)
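Following 48 hours of exposure in 96-well plates, responses at five concentrations were used to interpolate endpoints linearly. GI50 marks 50% less growth.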 Active and inactive are the calls of the source. No stated cut-off is given here; in the data, active = GI50 up to about 1.1 µM and inactive = higher.

Columns and labels:
Test in all cases: NCI anticancer screen, dose series, 48 h
RXF 393 = system: RXF 393
T47D = system: T47D
SN12C = system: SN12C
K562 = system: K562
SW-620 = system: SW-620
786-0 = system: 786-0
HCT-15 = system: HCT-15
OVCAR-8 = system: OVCAR-8
NCI-H460 = system: NCI-H460
HCT-116 = system: HCT-116
HOP-92 = system: HOP-92
A498 = system: A498
OVCAR-4 = system: OVCAR-4
SF-268 = system: SF-268
UACC-62 = system: UACC-62
U-251 = system: U-251
SF-295 = system: SF-295
NCI-H522 = system: NCI-H522
HL-60 = system: HL-60
SK-MEL-2 = system: SK-MEL-2
EKVX = system: EKVX
SF-539 = system: SF-539
RPMI-8226 = system: RPMI-8226
UACC-257 = system: UACC-257
BT-549 = system: BT-549
KM12 = system: KM12
DU-145 = system: DU-145
MDA-MB-231 = system: MDA-MB-231
ACHN = system: ACHN
SK-MEL-5 = system: SK-MEL-5
MOLT-4 = system: MOLT-4
IGROV-1 = system: IGROV-1
MDA-MB-435 = system: MDA-MB-435
CAKI-1 = system: CAKI-1
COLO 205 = system: COLO 205
SK-OV-3 = system: SK-OV-3
NCI-H23 = system: NCI-H23
MCF7 = system: MCF7
MDA-N = system: MDA-N
SNB-19 = system: SNB-19
M14 = system: M14
UO-31 = system: UO-31
TK-10 = system: TK-10
Hs-578T = system: Hs-578T
PC-3 = system: PC-3
NCI/ADR-RES = system: NCI/ADR-RES
HOP-62 = system: HOP-62
NCI-H226 = system: NCI-H226
OVCAR-5 = system: OVCAR-5
OVCAR-3 = system: OVCAR-3
SNB-75 = system: SNB-75
CCRF-CEM = system: CCRF-CEM
SR = system: SR
LOX IMVI = system: LOX IMVI
HT-29 = system: HT-29
SK-MEL-28 = system: SK-MEL-28
A549 = system: A549
HCC 2998 = system: HCC 2998
Malme-3M = system: Malme-3M

Compound: COc1cccc(/N=N/N2CCCC2)c1
- GI50 (RXF 393): > 100 µM (inactive)
- GI50 (T47D): > 100 µM (inactive)
- GI50 (SN12C): > 100 µM (inactive)
- GI50 (K562): > 100 µM (inactive)
- GI50 (SW-620): > 100 µM (inactive)
- GI50 (786-0): > 100 µM (inactive)
- GI50 (HCT-15): > 100 µM
- GI50 (OVCAR-8): > 100 µM (inactive)
- GI50 (NCI-H460): > 100 µM (inactive)
- GI50 (HCT-116): > 100 µM (inactive)
- GI50 (HOP-92): > 100 µM (inactive)
- GI50 (A498): > 100 µM (inactive)
- GI50 (OVCAR-4): > 100 µM (inactive)
- GI50 (SF-268): > 100 µM (inactive)
- GI50 (UACC-62): 39.5 µM (inactive)
- GI50 (U-251): > 100 µM (inactive)
- GI50 (SF-295): 26.5 µM (inactive)
- GI50 (NCI-H522): > 100 µM (inactive)
- GI50 (HL-60): 34.6 µM (inactive)
- GI50 (SK-MEL-2): > 100 µM (inactive)
- GI50 (EKVX): > 100 µM (inactive)
- GI50 (SF-539): > 100 µM (inactive)
- GI50 (RPMI-8226): 53.7 µM (inactive)
- GI50 (UACC-257): > 100 µM (inactive)
- GI50 (BT-549): > 100 µM (inactive)
- GI50 (KM12): 9.46 µM (inactive)
- GI50 (DU-145): > 100 µM (inactive)
- GI50 (MDA-MB-231): > 100 µM (inactive)
- GI50 (ACHN): > 100 µM (inactive)
- GI50 (SK-MEL-5): > 100 µM (inactive)
- GI50 (MOLT-4): > 100 µM (inactive)
- GI50 (IGROV-1): > 100 µM (inactive)
- GI50 (MDA-MB-435): 59.2 µM (inactive)
- GI50 (CAKI-1): > 100 µM (inactive)
- GI50 (COLO 205): > 100 µM (inactive)
- GI50 (SK-OV-3): > 100 µM (inactive)
- GI50 (NCI-H23): > 100 µM (inactive)
- GI50 (MCF7): > 100 µM (inactive)
- GI50 (MDA-N): 41.4 µM (inactive)
- GI50 (SNB-19): > 100 µM (inactive)
- GI50 (M14): > 100 µM (inactive)
- GI50 (UO-31): > 100 µM (inactive)
- GI50 (TK-10): > 100 µM (inactive)
- GI50 (Hs-578T): > 100 µM (inactive)
- GI50 (PC-3): 27.2 µM (inactive)
- GI50 (NCI/ADR-RES): > 100 µM (inactive)
- GI50 (HOP-62): > 100 µM (inactive)
- GI50 (NCI-H226): > 100 µM (inactive)
- GI50 (OVCAR-5): > 100 µM (inactive)
- GI50 (OVCAR-3): > 100 µM (inactive)
- GI50 (SNB-75): > 100 µM (inactive)
- GI50 (CCRF-CEM): > 100 µM (inactive)
- GI50 (SR): 40.2 µM (inactive)
- GI50 (LOX IMVI): 40.2 µM (inactive)

Compound: Cc1cccc(Nc2nc3ccccc3nc2NS(=O)(=O)c2ccccc2)c1
- GI50 (RXF 393): 27.7 µM (inactive)
- GI50 (T47D): 18.5 µM (inactive)
- GI50 (SN12C): 22.2 µM (inactive)
- GI50 (K562): 72.1 µM (inactive)
- GI50 (SW-620): 29.6 µM (inactive)
- GI50 (786-0): 39.4 µM (inactive)
- GI50 (HCT-15): 16 µM
- GI50 (OVCAR-8): 29.3 µM (inactive)
- GI50 (NCI-H460): 15.6 µM (inactive)
- GI50 (HCT-116): 27.4 µM (inactive)
- GI50 (HOP-92): 11 µM (inactive)
- GI50 (OVCAR-4): 2.14 µM (inactive)
- GI50 (SF-268): 44.3 µM (inactive)
- GI50 (UACC-62): 25.6 µM (inactive)
- GI50 (U-251): 14.6 µM (inactive)
- GI50 (SF-295): 14.5 µM (inactive)
- GI50 (NCI-H522): 17.3 µM (inactive)
- GI50 (HT-29): 26.6 µM (inactive)
- GI50 (HL-60): 13.8 µM (inactive)
- GI50 (SK-MEL-2): 14.3 µM (inactive)
- GI50 (EKVX): 30.5 µM (inactive)
- GI50 (SF-539): 33.8 µM (inactive)
- GI50 (SK-MEL-28): 38.7 µM (inactive)
- GI50 (RPMI-8226): 7.01 µM (inactive)
- GI50 (UACC-257): 26.1 µM (inactive)
- GI50 (BT-549): 40.1 µM (inactive)
- GI50 (KM12): 20.3 µM (inactive)
- GI50 (DU-145): 44.3 µM (inactive)
- GI50 (MDA-MB-231): 39.5 µM (inactive)
- GI50 (ACHN): 28.9 µM (inactive)
- GI50 (SK-MEL-5): 19.4 µM (inactive)
- GI50 (MOLT-4): 12.6 µM (inactive)
- GI50 (IGROV-1): 19.9 µM (inactive)
- GI50 (MDA-MB-435): 46.6 µM (inactive)
- GI50 (CAKI-1): 44.1 µM (inactive)
- GI50 (COLO 205): 16.1 µM (inactive)
- GI50 (SK-OV-3): 25.2 µM (inactive)
- GI50 (A549): 14.1 µM (inactive)
- GI50 (NCI-H23): 18.3 µM (inactive)
- GI50 (MCF7): 26.5 µM (inactive)
- GI50 (MDA-N): 42.9 µM (inactive)
- GI50 (SNB-19): 18.1 µM (inactive)
- GI50 (M14): 38.3 µM (inactive)
- GI50 (UO-31): 15.1 µM (inactive)
- GI50 (TK-10): 22.9 µM (inactive)
- GI50 (HCC 2998): 0.721 µM (active)
- GI50 (Hs-578T): 33 µM (inactive)
- GI50 (PC-3): 14.4 µM (inactive)
- GI50 (NCI/ADR-RES): 20 µM (inactive)
- GI50 (HOP-62): 27.5 µM (inactive)
- GI50 (NCI-H226): 70 µM (inactive)
- GI50 (OVCAR-5): > 100 µM (inactive)
- GI50 (Malme-3M): 17.1 µM (inactive)
- GI50 (OVCAR-3): 19 µM (inactive)
- GI50 (SNB-75): 14.4 µM (inactive)
- GI50 (CCRF-CEM): 18.2 µM (inactive)
- GI50 (SR): 25.6 µM (inactive)
- GI50 (LOX IMVI): 45.4 µM (inactive)

Compound: Cc1[nH]c2ccccc2c1/C=N/c1ccc(Oc2ccccc2)cc1
- GI50 (RXF 393): 16.8 µM (inactive)
- GI50 (T47D): 18.5 µM (inactive)
- GI50 (SN12C): 16.6 µM (inactive)
- GI50 (K562): 23.2 µM (inactive)
- GI50 (SW-620): 18 µM (inactive)
- GI50 (786-0): 16.3 µM (inactive)
- GI50 (HCT-15): 18.6 µM
- GI50 (OVCAR-8): 18.3 µM (inactive)
- GI50 (NCI-H460): 20.4 µM (inactive)
- GI50 (HCT-116): 16.6 µM (inactive)
- GI50 (HOP-92): 12.7 µM (inactive)
- GI50 (A498): 18.3 µM (inactive)
- GI50 (OVCAR-4): 14.9 µM (inactive)
- GI50 (SF-268): 14.6 µM (inactive)
- GI50 (UACC-62): 17.9 µM (inactive)
- GI50 (U-251): 15.3 µM (inactive)
- GI50 (SF-295): 14 µM (inactive)
- GI50 (NCI-H522): 14.1 µM (inactive)
- GI50 (HT-29): 17.3 µM (inactive)
- GI50 (HL-60): 12.1 µM (inactive)
- GI50 (SK-MEL-2): 18.4 µM (inactive)
- GI50 (EKVX): 14.1 µM (inactive)
- GI50 (SF-539): 18.1 µM (inactive)
- GI50 (SK-MEL-28): 18.8 µM (inactive)
- GI50 (RPMI-8226): 10.4 µM (inactive)
- GI50 (UACC-257): 17.4 µM (inactive)
- GI50 (BT-549): 14.8 µM (inactive)
- GI50 (KM12): 16.2 µM (inactive)
- GI50 (DU-145): 16.1 µM (inactive)
- GI50 (MDA-MB-231): 15.6 µM (inactive)
- GI50 (ACHN): 16.3 µM (inactive)
- GI50 (SK-MEL-5): 15.2 µM (inactive)
- GI50 (MOLT-4): 13.8 µM (inactive)
- GI50 (IGROV-1): 13.4 µM (inactive)
- GI50 (MDA-MB-435): 17.2 µM (inactive)
- GI50 (CAKI-1): 15.9 µM (inactive)
- GI50 (COLO 205): 15.9 µM (inactive)
- GI50 (SK-OV-3): 17.5 µM (inactive)
- GI50 (A549): 17.1 µM (inactive)
- GI50 (NCI-H23): 16 µM (inactive)
- GI50 (MCF7): 19.1 µM (inactive)
- GI50 (MDA-N): 17.2 µM (inactive)
- GI50 (SNB-19): 18 µM (inactive)
- GI50 (M14): 16.6 µM (inactive)
- GI50 (UO-31): 12 µM (inactive)
- GI50 (TK-10): 16.4 µM (inactive)
- GI50 (Hs-578T): 22.6 µM (inactive)
- GI50 (PC-3): 13.8 µM (inactive)
- GI50 (NCI/ADR-RES): 19.1 µM (inactive)
- GI50 (OVCAR-5): 16.3 µM (inactive)
- GI50 (Malme-3M): 19 µM (inactive)
- GI50 (OVCAR-3): 14.2 µM (inactive)
- GI50 (SNB-75): 13 µM (inactive)
- GI50 (CCRF-CEM): 7.05 µM (inactive)
- GI50 (SR): 19.1 µM (inactive)
- GI50 (LOX IMVI): 15.5 µM (inactive)
